{"source": "patent US11357850B2", "about": "“Methods for treating breast cancer using INOS-inhibitory compositions” (The Methodist Hospital, priority 2014, dated 2022)", "key": {"[1]": {"test_system": "MCF10A", "test": "Western blot of PERK/eIF2α/ATF4/ATF3 axis with recombinant TGFβ1", "assay_type": "cell-based", "conditions": "1400 W 4 mM co-treatment with recombinant TGFβ1 for 24 hrs", "description": "FIG. 3A, FIG. 3B, FIG. 3C, FIG. 3D, FIG. 3E, FIG. 3F, FIG. 3G, FIG. 311, FIG. 3I, and FIG. 3J show iNOS knockdown impairs tumorigenicity and EMT by a dual impact on HIF1α and endoplasmic reticulum (ER) stress/TGFβ/AFT4/ATF3 crosstalk. Proliferation (FIG. 3A), migration (FIG. 3B), and self-renewal capacity (primary and secondary mammospheres) (FIG. 3C) in MDA-MB-231 cells transfected with two different NOS2-directed shRNAs (shRNA1, shRNA2) compared with empty vector (shRNA-EV). […] Selective iNOS inhibition reduced hypoxia (HIF1α), ER stress markers (IRE1α, ATF4) (FIG. 3F), phospho-Smad2/3, Smad2/3 and mature TGFβ protein levels in MDA-MB-231 and SUM159 cells (FIG. 3G). FIG. 3H: Recombinant TGFβ1 (10 ng/mL for 24 hrs) activates the PERK/eIF2α/ATF4/ATF3 axis in MCF10A. […] FIG. 3J: Selective iNOS inhibition is postulated to impair EMT and tumor cell migration by an impact on HIF1α, ER stress (IRE1α/XBP1) and the crosstalk between ATF4, ATF3 and TGFβ. Results were normalized to empty vector. Data are presented as mean±SEM. ****p<0.0001, ***p<0.001, **p<0.01. One-way ANOVA and Bonferroni's post-hoc test;\nWestern Blot. Cells were cultured at a density of 2.5×10^5 cells/well in 6-well plates with or without iNOS inhibitors for 96 hrs. Cells were resuspended in 1× lysis buffer (Cell Signaling Technology, Inc.) and 1× protease/phosphatase inhibitor cocktail (Thermo Scientific). […]"}, "[2]": {"test_system": "SUM159", "test": "Western blot of EMT, hypoxia, ER stress and TGFβ markers", "assay_type": "cell-based, human", "method": "(§1) Protein levels of iNOS and EMT-inducing factors were determined by Western blot with antibodies against: iNOS (N-20) and Twist1 (L-21) (Santa Cruz Biotechnology), Snail (C15D3), Slug (C19G7) and TCF8/Zeb1 (D80D3) (Cell Signaling) (1:1000 dilution). β-actin (Cell Signaling; 1:2000) was used as loading control;\n(§2) Western Blot. […] Cells were resuspended in 1× lysis buffer (Cell Signaling Technology, Inc.) and 1× protease/phosphatase inhibitor cocktail (Thermo Scientific). Samples (30 μg protein) were boiled in 4×LDS sample buffer (Thermo Scientific) containing […] (Sigma-Aldrich) and subjected to SDS-PAGE electrophoresis in 4-20% polyacrylamide gels (Bio-Rad, Hercules, Calif., USA). Proteins were transferred onto nitrocellulose membranes (Bio-Rad) and non-specific binding was avoided incubating with 5% non-fat dry milk in 1×Tris-buffered saline (TBS) for 1 hr. Membranes were incubated overnight at 4° C. with primary antibodies (1:1,000 dilution; anti-β-Actin, 1:2,000 dilution). After washing and incubation with the appropriate secondary antibodies for 1 hr (1:2,000 dilution), membranes were washed and incubated with enhanced chemiluminescence substrate. Protein bands were developed in autoradiography films (Denville Scientific, Inc., Holliston, Mass., USA)."}, "[3]": {"test_system": "HRT-18 cells", "conditions": "daily treatment with 500 μM; cited from earlier work"}, "[4]": {"test_system": "MDA-MB-231", "test": "Western blot / RT-PCR of EMT, hypoxia, ER stress and TGFβ markers", "assay_type": "cell-based, human", "method": "as §1, §2\nRT-PCR Analysis of Spliced XBP1. […] The PCR amplification (50 ng cDNA) was done with […] Taq DNA polymerase (native, 5 U/μL), 0.2 mM dNTP, 1.5 mM MgCl2 (50 mM) and 0.5 μM of each primer."}, "[5]": {"test_system": "MDA-MB-231", "test": "Cell migration, wound healing assay", "assay_type": "cell-based, human", "conditions": "96 hrs treatment, wound healing 12 hrs", "method": "(§3) FIG. 18A and FIG. 18B show the migration of MDA-MB-231 and SUM159 cells was assessed by “wound healing” assay. Briefly, 3×10^5 cells were plated in a 6-well plate until confluence in growth medium. […] A “wound” was then created in the cell monolayer. Images were taken at 0 and 12 hrs. Wound-healing capacity was determined with the software Image J. Data were replicated in three independent experiments. Results were normalized to vehicle;\n(§4) Cell migration capacity. Cell migration was determined with a “wound healing assay.” Briefly, 3×10^5 cells/well were grown in 6-well plates until confluence. […] To avoid an impact on cell proliferation, low serum medium was changed by regular growth medium in presence of inhibitors for 24 hrs (96 hrs total). A “wound” was then created in the cell monolayer with a 100-4, pipette tip. Images were taken at 0 hrs, and cells were allowed to heal the wound for 12 hrs. Wound-healing capacity was determined with the software Image J. Data were replicated in three independent experiments."}, "[6]": {"test_system": "SUM159", "test": "Cell migration, wound healing assay", "assay_type": "cell-based, human", "conditions": "96 hrs treatment, wound healing 12 hrs", "method": "as §3, §4"}, "[7]": {"test_system": "adenoid cystic carcinoma of the oral cavity", "conditions": "mouse, in vivo; cited from earlier work"}, "[8]": {"conditions": "millimolar and micromolar concentrations, 96 hrs"}}, "data": [{"smiles": "CC(=N)NCc1cccc(CN)c1", "note": "[1400 W, N-[[3-(aminomethyl)phenyl]methyl]-ethanimidamide]", "values": [{"measurement": "stimulation of ATF4 and ATF3 protein levels by TGFβ1", "setting": "[1]", "result": "inhibit the stimulation of ATF4 and ATF3 protein levels"}, {"measurement": "hypoxia (HIF1α)", "setting": "[2]; 96 hrs", "result": "dose-dependent decrease"}, {"measurement": "TGFβ signaling (phospho-Smad2/3, Smad2/3 and mature TGFβ)", "setting": "[2]; absence of recombinant TGFβ1", "result": "inhibit TGFβ signaling"}, {"measurement": "protein levels of the EMT transcription factors Snail, Slug, and Twist1", "setting": "[2]; [8]", "result": "reduction in protein levels"}, {"measurement": "Zeb1 protein levels", "setting": "[2]; millimolar concentrations", "result": "decreased"}, {"measurement": "ER stress markers IRE1α and ATF4", "setting": "[2]; splicedXBP1 was not detected in SUM159 cells", "result": "dose-dependent decrease"}, {"measurement": "invasiveness", "setting": "[3]", "result": "substantially decreased"}, {"measurement": "ER stress markers IRE1α/splicedXBP1 and ATF4", "setting": "[4]; 96 hrs", "result": "dose-dependent decrease"}, {"measurement": "hypoxia (HIF1α)", "setting": "[4]; 96 hrs", "result": "dose-dependent decrease"}, {"measurement": "TGFβ signaling (phospho-Smad2/3, Smad2/3 and mature TGFβ)", "setting": "[4]; absence and presence of recombinant TGFβ1 (10 ng/mL for 72 hrs)", "result": "inhibit TGFβ signaling"}, {"measurement": "protein levels of the EMT transcription factors Snail, Slug, and Twist1", "setting": "[4]; [8]", "result": "reduction in protein levels"}, {"measurement": "Zeb1 protein levels", "setting": "[4]; millimolar concentrations", "result": "decreased"}, {"measurement": "migration", "setting": "[5]; micromolar range", "result": "marked dose-dependent decrease in migration"}, {"measurement": "migration", "setting": "[5]; millimolar range", "result": "marked dose-dependent decrease in migration"}, {"measurement": "migration", "setting": "[6]; micromolar range", "result": "marked dose-dependent decrease in migration"}, {"measurement": "migration", "setting": "[6]; millimolar range", "result": "marked dose-dependent decrease in migration"}, {"measurement": "spontaneous lung metastasis", "setting": "[7]", "result": "markedly inhibit spontaneous lung metastasis"}]}]}
